Patent publication US20240148821A1, “PHARMACEUTICAL USE OF CYCLIC PEPTIDE COMPOUND” (CHUGAI SEIYAKU KABUSHIKI KAISHA, priority 2021, published 2024)
Numbered stars: 1 amine (or outer) side, 2 acyl side, 3 side chain; on linkers, the order of the positions; unused ones are H or OH. Bridge positions count the residues as written; N and C are the ends. Square brackets hold non-standard residues; d marks the D form. Peptide text beside a SMILES is read from it. * marks the point of attachment. hPhe(3-Cl-4-CF3) = N[C@@H](CCc1ccc(C(F)(F)F)c(Cl)c1)C(=O)O; NMePhe(4-Me) = CN[C@@H](Cc1ccc(C)cc1)C(=O)O; X48 = CN([C@@H](CCc1cccnc1)C(=O)[*:2])[*:1]; NMePhe(2-Me) = CN[C@@H](Cc1ccccc1C)C(=O)O; Abu(4,4,4-F3) = N[C@@H](CC(F)(F)F)C(=O)O; NMeNva(5,5-F2) = CN[C@@H](CCC(F)F)C(=O)O; NMeGly(cPent) = CN[C@H](C(=O)O)C1CCCC1; NMe4Pal = CN[C@@H](Cc1ccncc1)C(=O)O; NMeCha = CN[C@@H](CC1CCCCC1)C(=O)O; NMeChg = CN[C@H](C(=O)O)C1CCCCC1; NMeI = CC[C@H](C)[C@H](NC)C(=O)O; NMeD = CN[C@@H](CC(=O)O)C(=O)O; NMeL = CN[C@@H](CC(C)C)C(=O)O; NMeNva = CCC[C@H](NC)C(=O)O; NMeV = CN[C@H](C(=O)O)C(C)C; Morpholide = C1CN(*)CCO1; NMeA = CN[C@@H](C)C(=O)O; Piperidide = C1CCN(*)CC1; Pyrrolidide = C1CCN(*)C1; Ac5c = NC1(C(=O)O)CCCC1; Aze = O=C(O)[C@@H]1CCN1; Ac4c = NC1(C(=O)O)CCC1; Sar = CNCC(=O)O

Tested on: Human pancreatic cancer cell line AsPC-1 (G12D mutation Kras)
Assay: AsPC-1 cell growth inhibition (AsPC-1 CGI)
Format: cell-based
Conditions: read-out: AsPC-1 cell growth inhibition, 50% growth inhibitory concentration (IC50 value); 96 hours, CellTiter-Glo, values classified in ranges
Description: Test compounds were serially dilated with dimethyl sulfoxide, and 200 nL was then dispensed to a U-bottom 96-well plate using Labcyte Echo. […] The cell suspension was dispensed to a. plate containing a test compound at 100 μL per well and incubated at 37° C. in a 5% carbon dioxide gas incubator. 96 hours later, 80 μL of CellTiter-Glo (Promega) was added to each well and fluorescence was measured.

Row | Compound | IC50 [nM]
1 | CC(C)C[C@H]1C(=O)N[C@@H](CC(F)(F)F)C(=O)N(C)[C@@H](C)C(=O)N2CC[C@H]2C(=O)N(C)[C@@H](CC2CCCCC2)C(=O)N(C)CC(=O)N[C@@H](CCc2ccc(C(F)(F)F)c(Cl)c2)C(=O)N2CCC[C@H]2C(=O)NC2(CCCC2)C(=O)N(C)[C@@H](C(C)C)C(=O)N(C)[C@H](C(=O)N2CCCCC2)CC(=O)N1C [Compound 1864] ([NMeL][Abu(4,4,4-F3)][NMeA][Aze][NMeCha][Sar][hPhe(3-Cl-4-CF3)]P[Ac5c][NMeV][NMeD]-Piperidide; lactam N-11) | > 500
2 | CC[C@H](C)[C@@H]1NC(=O)[C@H](CC(C)C)N(C)C(=O)C[C@@H](C(=O)N(C)C)N(C)C(=O)[C@H]([C@@H](C)CC)N(C)C(=O)C2(CCCC2)NC(=O)[C@@H]2CCCN2C(=O)[C@H](CCc2ccc(C(F)(F)F)c(Cl)c2)NC(=O)CN(C)C(=O)[C@H](CC2CCCCC2)N(C)C(=O)CN(C)C(=O)CN(C)C1=O [Compound 1865] ([NMeL]I[Sar][Sar][NMeCha][Sar][hPhe(3-Cl-4-CF3)]P[Ac5c][NMeI][NMeD]-NMe2; lactam N-11) | ≤ 20
3 | CC[C@H](C)[C@@H]1NC(=O)[C@H](CC(C)C)N(C)C(=O)C[C@@H](C(=O)N2CCOCC2)N(C)C(=O)[C@H](C2CCCCC2)N(C)C(=O)C2(CCC2)NC(=O)[C@@H]2CCCN2C(=O)[C@H](CCc2ccc(C(F)(F)F)c(Cl)c2)NC(=O)CN(C)C(=O)[C@H](CC2CCCCC2)N(C)C(=O)CN(C)C(=O)CN(C)C1=O [Compound 1875] ([NMeL]I[Sar][Sar][NMeCha][Sar][hPhe(3-Cl-4-CF3)]P[Ac4c][NMeChg][NMeD]-Morpholide; lactam N-11) | ≤ 20
4 | CC[C@H](C)[C@@H]1NC(=O)[C@H](CC(C)C)N(C)C(=O)C[C@@H](C(=O)N(C)C)N(C)C(=O)[C@H](C2CCCC2)N(C)C(=O)C2(CCCC2)NC(=O)[C@H](Cc2ccccc2C)N(C)C(=O)[C@H](CCc2ccc(C(F)(F)F)c(Cl)c2)NC(=O)CN(C)C(=O)[C@H](CC2CCCCC2)N(C)C(=O)[C@@H]2CCN2C(=O)[C@H](C)N(C)C1=O [Compound 1880] ([NMeL]I[NMeA][Aze][NMeCha][Sar][hPhe(3-Cl-4-CF3)][NMePhe(2-Me)][Ac5c][NMeGly(cPent)][NMeD]-NMe2; lactam N-11) | > 500
5 | CC[C@H](C)[C@@H]1NC(=O)[C@H](CC(C)C)N(C)C(=O)C[C@@H](C(=O)N(C)C)N(C)C(=O)[C@H]([C@@H](C)CC)N(C)C(=O)C2(CCCC2)NC(=O)[C@H](CCc2cccnc2)N(C)C(=O)[C@H](CCc2ccc(C(F)(F)F)c(Cl)c2)NC(=O)CN(C)C(=O)[C@H](Cc2ccc(C)cc2)N(C)C(=O)[C@@H]2CCN2C(=O)[C@H](C)N(C)C1=O [Compound 1886] ([NMeL]I[NMeA][Aze][NMePhe(4-Me)][Sar][hPhe(3-Cl-4-CF3)][X48][Ac5c][NMeI][NMeD]-NMe2; lactam N-11) | ≤ 20
6 | CC[C@H](C)[C@@H]1NC(=O)[C@H](CC(C)C)N(C)C(=O)C[C@@H](C(=O)N2CCCC2)N(C)C(=O)[C@H](C2CCCCC2)N(C)C(=O)C2(CCC2)NC(=O)[C@@H]2CCCN2C(=O)[C@H](CCc2ccc(C(F)(F)F)c(Cl)c2)NC(=O)CN(C)C(=O)[C@H](CC2CCCCC2)N(C)C(=O)CN(C)C(=O)CN(C)C1=O [Compound 1894] ([NMeL]I[Sar][Sar][NMeCha][Sar][hPhe(3-Cl-4-CF3)]P[Ac4c][NMeChg][NMeD]-Pyrrolidide; lactam N-11) | ≤ 20
7 | CC[C@H](C)[C@@H]1NC(=O)[C@H](CC(C)C)N(C)C(=O)C[C@@H](C(=O)N(C)C)N(C)C(=O)[C@H]([C@@H](C)CC)N(C)C(=O)[C@H](C(C)C)NC(=O)[C@H](Cc2ccncc2)N(C)C(=O)[C@H](CCc2ccc(C(F)(F)F)c(Cl)c2)NC(=O)CN(C)C(=O)[C@H](Cc2ccc(C)cc2)N(C)C(=O)[C@@H]2CCN2C(=O)[C@H](C)N(C)C1=O [Compound 1897] ([NMeL]I[NMeA][Aze][NMePhe(4-Me)][Sar][hPhe(3-Cl-4-CF3)][NMe4Pal]V[NMeI][NMeD]-NMe2; lactam N-11) | > 500
8 | CC[C@H](C)[C@@H]1NC(=O)[C@H](CC(C)C)N(C)C(=O)C[C@@H](C(=O)N(C)C)N(C)C(=O)[C@H]([C@@H](C)CC)N(C)C(=O)C2(CCCC2)NC(=O)[C@H](CCC(F)F)N(C)C(=O)[C@H](CCc2ccc(C(F)(F)F)c(Cl)c2)NC(=O)CN(C)C(=O)[C@H](Cc2ccc(C)cc2)N(C)C(=O)[C@@H]2CCN2C(=O)[C@H](C)N(C)C1=O [Compound 1898] ([NMeL]I[NMeA][Aze][NMePhe(4-Me)][Sar][hPhe(3-Cl-4-CF3)][NMeNva(5,5-F2)][Ac5c][NMeI][NMeD]-NMe2; lactam N-11) | ≤ 20
9 | CC[C@H](C)[C@@H]1NC(=O)[C@H](CC(C)C)N(C)C(=O)C[C@@H](C(=O)N(C)C)N(C)C(=O)[C@H]([C@@H](C)CC)N(C)C(=O)C2(CCCC2)NC(=O)[C@H](Cc2ccncc2)N(C)C(=O)[C@H](CCc2ccc(C(F)(F)F)c(Cl)c2)NC(=O)CN(C)C(=O)[C@H](Cc2ccc(C)cc2)N(C)C(=O)[C@@H]2CCN2C(=O)[C@H](C)N(C)C1=O [Compound 1962] ([NMeL]I[NMeA][Aze][NMePhe(4-Me)][Sar][hPhe(3-Cl-4-CF3)][NMe4Pal][Ac5c][NMeI][NMeD]-NMe2; lactam N-11) | ≤ 20
10 | CC[C@H](C)[C@@H]1NC(=O)[C@H](CC(C)C)N(C)C(=O)C[C@@H](C(=O)N(C)C)N(C)C(=O)[C@H]([C@@H](C)CC)N(C)C(=O)[C@H](C)NC(=O)[C@H](Cc2ccncc2)N(C)C(=O)[C@H](CCc2ccc(C(F)(F)F)c(Cl)c2)NC(=O)CN(C)C(=O)[C@H](Cc2ccc(C)cc2)N(C)C(=O)[C@@H]2CCN2C(=O)[C@H](C)N(C)C1=O [Compound 1973] ([NMeL]I[NMeA][Aze][NMePhe(4-Me)][Sar][hPhe(3-Cl-4-CF3)][NMe4Pal]A[NMeI][NMeD]-NMe2; lactam N-11) | > 500
11 | CC[C@H](C)[C@@H]1NC(=O)[C@H](CC(C)C)N(C)C(=O)C[C@@H](C(=O)N2CCOCC2)N(C)C(=O)[C@H]([C@@H](C)CC)N(C)C(=O)C2(CCCC2)NC(=O)[C@@H]2CCCN2C(=O)[C@H](CCc2ccc(C(F)(F)F)c(Cl)c2)NC(=O)CN(C)C(=O)[C@H](CC2CCCCC2)N(C)C(=O)CN(C)C(=O)CN(C)C1=O [Compound 1979] ([NMeL]I[Sar][Sar][NMeCha][Sar][hPhe(3-Cl-4-CF3)]P[Ac5c][NMeI][NMeD]-Morpholide; lactam N-11) | ≤ 20
12 | CC[C@H](C)[C@@H]1NC(=O)[C@H](CC(C)C)N(C)C(=O)C[C@@H](C(=O)N(C)C)N(C)C(=O)[C@H](C2CCCC2)N(C)C(=O)[C@H](C(C)C)NC(=O)[C@H](Cc2ccncc2)N(C)C(=O)[C@H](CCc2ccc(C(F)(F)F)c(Cl)c2)NC(=O)CN(C)C(=O)[C@H](CC2CCCCC2)N(C)C(=O)[C@@H]2CCN2C(=O)[C@H](C)N(C)C1=O [Compound 1982] ([NMeL]I[NMeA][Aze][NMeCha][Sar][hPhe(3-Cl-4-CF3)][NMe4Pal]V[NMeGly(cPent)][NMeD]-NMe2; lactam N-11) | > 500
13 | CCC[C@H]1C(=O)N[C@@H]([C@@H](C)CC)C(=O)N(C)CC(=O)N(C)CC(=O)N(C)[C@@H](CC2CCCCC2)C(=O)N(C)CC(=O)N[C@@H](CCc2ccc(C(F)(F)F)c(Cl)c2)C(=O)N2CCC[C@H]2C(=O)NC2(CCCC2)C(=O)N(C)[C@@H](C2CCCCC2)C(=O)N(C)[C@H](C(=O)N2CCCC2)CC(=O)N1C [Compound 2001] ([NMeNva]I[Sar][Sar][NMeCha][Sar][hPhe(3-Cl-4-CF3)]P[Ac5c][NMeChg][NMeD]-Pyrrolidide; lactam N-11) | ≤ 20
